For series [1], the system named is human iPS cell derived neurons. As to the kind of experiment: MTT cell viability of human iPS cell derived neurons. As to conditions: 24 hours. The series is classed as cell-based. As to the method: Human induced pluripotent stem (iPS) cells (Foreskin-1, WiCell) were used for generation of primitive neural stem cell (pNSC) and their differentiation into neurons according to a modified protocol, which was described to obtain primitive neural precursors from human embryonic stem cells. Briefly, iPS cells were cultured on feeder cells to form small colonies. Next, medium was changed to neural stem cell medium (DMEM/F12:Neurobasal; GIBCO) in the presence of leukaemia inhibiting factor (LIF; Millipore, 10 ng/ml) and three small molecules CHIR99021 (inhibitor of GSK-30, Axon Medchem, […]) and SB431542 (inhibitor of TGF-β and activin receptors; Axon Medchem, 3 μM), and Compound E (inhibitor of γ-secretase; Axon Medchem, 0.1 μM) for 10 days. […]
Cell viability was determined by the (3-(4,5-Dimethylthiazol-2-yl)-2,5-diphenyltetrazolium bromide (MTT) assay (Millipore). Cells were treated for 24 hours with 5 nM, 15 nM, 50 nM, 150 nM, 500 nM, 1.5 μM, 5 μM, 15 μM, 50 μM or 150 μM of PSA-20. After 20 hours of stimulation, 10 μl of MTT-reagent was added and cells were cultured for another 4 hours. Then, cells were lysed with isopropanol containing 0.04 M HCl 1M to measure the dye formazan. The light absorbance of the purple formazan dye was determined by a spectrophotometer at a wavelength of 570 nm with a reference wavelength of 630 nm (Perkin Elmer, Envision Multiplate Reader). […]

The test system of series [2] is human macrophage cell line THP-1. The experiment in a line: LPS-induced TNF-alpha gene transcription in human macrophages. The series is classed as cell-based. As to conditions: THP-1, LPS 1 μg/ml, 24 hours; 0.15 μM and 0.5 μM; FIG. 5B. The method, then:
The human monocyte line THP-1 (ATCC TIB-202) was cultured in RPMI medium with 10% FCS, 1% sodium pyruvate and 1% penicillin/streptomycin (100×) (all Gibco, Invitrogen) in 75 ml cell culture flasks (Sarstedt). For differentiation into tissue macrophages the line was cultured for 3 hours in normal cell culture medium containing 0.5 μM phorbol 12-myristate 13-acetate (Sigma) and afterwards in phorbol 12-myristate 13-acetate free medium for at least 24 hours.
FIG. 5B illustrates the effect of low molecular weight PSA (PSA-20) on the pro-inflammatory cytokine TNF-alpha. The human macrophage cell line THP-1 was treated with lipopolysaccharides (LPS, 1 μg/ml) and PSA-20 (different concentrations) for 24 hours. Gene transcripts for tumor necrosis factor-α a (TNFα) were determined by quantitative RT-PCR and normalized to GAPDH. In detail, RNA isolation was performed using RNeasy Mini Kit (Qiagen) and transcription with the SuperScript First-Strand Synthesis System (Invitrogen). Quantitative RT-PCR with specific oligonucleotides (GAPDH: […] (SEQ ID NO: 1) and […] (SEQ ID NO: 2); TNFα: […] (SEQ ID NO: 3) and […] (SEQ ID NO: 4)) was performed using SYBR green PCR Master Mix with the Mastercycler epgradients S (Eppendorf). Results were normalized to GAPDH. Quantification using the delta-CT method was carried out.

For series [3], the system named is humanized Siglec-11 transgenic mice. The experiment in a line: Experimental autoimmune encephalomyelitis (animal model of multiple sclerosis). It is filed as in vivo. The method, then: Experimental autoimmune encephalomyelitis was induced in humanized Siglec-11 transgenic mice (humanized Siglec-11 mouse) and littermate control mice (normal control mice). Therefore, adult 6-8 weeks-old female humanized Siglec-11 transgenic mice (Wang et al. 2009, dissertation, University Bonn, uniform resource name: urn:nbn:de:hbz:5N-18095) and littermate control mice were immunized with 100 μg of myelin oligodendrocyte glycoprotein MOG (amino acids 35-55; Seqlab) in […] Freunds adjuvant (both DIFCO; BD GmbH, Heidelberg, Germany). Pertussis toxin (200 ng; List Biological Laboratories, Epsom, UK) was injected on days 0 and 2 of immunization. Clinical signs were scored as following: 0, no clinical signs; 1, complete limp tail; 2, complete limp tail and weakness of hindlimbs; 3, paraparesis of at least one hindlimb; 4, complete hindlimb paraparesis and weakness of forelimbs; and 5, fore- and hindlimb paralysis or moribund. Only mice having disease onset (clinical score of >=1) until day 20 were used for experiments.
Low molecular weight PSA-20 (1 μg per g body weight) was applied intraperitoneally into the mice on the day of disease onset (clinical score at least 1) and daily on the following three consecutive days. […] The cumulative disease score from the first day of treatment until day 25 was determined.

For poly-(α(2→8)Neu5Ac)n [PSA-20], in series [1] (5 nM to 150 μM, FIG. 10A), the “cell viability of human neurons (MTT)” value is “not reduced”. Further, the “neuronal cell viability (MTT)” value in series [1] (150 μM) was “no interference”. The “LPS-induced gene transcription of TNF-alpha” value in series [2] is given as “reduced”. Moreover, in series [3] (Siglec-11 transgenic mice, 1 μg per g body weight i.p. from disease onset, 4 days, from day 14 onwards, FIG. 8A), the “clinical signs (clinical score)” value is listed as “improved clinical signs”. Besides, in series [3] (first day of treatment until day 25, FIG. 8B), the cumulative disease score result is reported as “improved the clinical signs of disease”.

Source of the values: patent US9944721B2, “Polysialic acid and use for treatment of neurodegenerative and neuroinflammatory diseases” (RHEINISCHE FRIEDRICH-WILHELMS UNIVERSITÄT BONN, priority 2013, dated 2018).
